Patent publication US20140377216A1, “ANTICANCER FUSION PROTEIN” (ADAMED SP. Z.O.O., priority 2011, published 2014)

What was measured:
Assay type in all cases: in vivo, Crl:SHO-PrkdcscidHrhr mice
[1] = system: human pancreas cancer PANC-1; test: Pancreas cancer model, Experiment A: PANC-1 xenograft; details: 20 mg/kg i.v. 6 times every second day, 42 day
Method: (§1) Tumor size was measured using electronic calliper, tumor volume was calculated using the formula: (a^2×b)/2, where a=shorter diagonal of the tumor (mm) and b=longer diagonal of the tumor (mm). Inhibition of tumor growth was calculated using the formula:
(§2) TGI[%](Tumor growth inhibition)=(WT/WC)×100−100%
(§3) wherein WT is the average tumor volume in the treatment group, and WC is the average tumor volume in the control group.
On day 0 Crl:SHO-Prkdc^scidHr^hr mice were grafted subcutaneously (s.c.) in the right side with 5×10^6 of PANC-1 cells suspended in 0.1 ml of the mixture HBSS:Matrigel 3:1 using syringe with a needle 0.5×25 mm (Bogmark). On the 31 day of the experiment mice were randomized to obtain the average size of tumors in the group of ˜110 mm^3 and assigned to treatment groups. The treatment groups were administered with the preparations of fusion protein of the invention of Ex. 11^a (40 mg/kg), and rhTRAIL114-281 (20 mg/kg) as a comparison against formulation buffer (19 mM NaH2PO4, 81 mM Na2HPO4, 50 mM NaCl, 5 mM glutathione, 0.1 mM ZnCl2, 10% glycerol, pH 7.4) as a control. The preparations were administered intravenously (i.v) 6 times once daily every second day. On the 42 day of the experiment mice were sacrificed by disruption of the spinal cord.

[2] = system: human colon cancer HCT116; test: Colon cancer model, Experiment A1: HCT116 xenograft; details: 65 mg/kg i.v. six times every second day, 24th day
Method: as §1, §2, §3
On day 0 Crl:SHO-Prkdc^scidHr^hr mice were grafted subcutaneously (s.c.) in the right flank region with 5×10^6 of HCT116 cells suspended in 0.1 ml of the 3:1 mixture HBSS buffer:Matrigel using syringe with a 0.5×25 mm needle (Bogmark). When tumors reached the size of 71-432 mm^3 (day 13), mice were randomized to obtain the average size of tumors in the group of ˜180 mm^3 and assigned to treatment groups. The treatment groups were administered with the preparations of fusion protein of the invention of Ex. 16^b (90 mg/kg) and rhTRAIL114-281 (65 mg/kg) as a comparison. The preparations were administered intravenously (i.v.) six times every second day. The control group received formulation buffer.
When an experimental group reached the average tumor size of −1000 mm^3, mice were sacrificed by cervical dislocation.

human colon cancer SW620 = test: Colon cancer model, Experiment B: SW620 xenograft; details: 30 mg/kg i.v. 6 times every second day, 31 day
Method: as §1, §2, §3
On day 0 Crl:SHO-Prkdc^scidHr^hr mice were grafted subcutaneously (s.c.) in the right side with 5×10^6 of SW620 cells suspended in 0.1 ml of the mixture HBSS:Matrigel 3:1 using syringe with a needle 0.5×25 mm (Bogmark). On the 17 day of the experiment mice were randomized to obtain the average size of tumors in the group of ˜320 mm^3 and assigned to treatment groups. The treatment groups were administered with the preparation of fusion protein of the invention of Ex. 16^a (20 mg/kg) and rhTRAIL114-281 (30 mg/kg) as a comparison against formulation buffer (19 mM NaH2PO4, 81 mM Na2HPO4, 50 mM NaCl, 5 mM glutathione, 0.1 mM ZnCl2, 10% glycerol, pH 7.4) as a control. The preparations were administered intravenously (i.v) 6 times once daily every second day. On the 31 day of the experiment mice were sacrificed by disruption of the spinal cord.

[3] = system: pancreatic carcinoma MIA PaCa-2; test: Pancreas cancer model, Experiment B: MIA PaCa-2 xenograft; details: rhTRAIL 50 mg/kg i.v. six times every second day, 61th day
Method: as §1, §2, §3
On day 0 Crl:SHO-Prkdc^scidHr^hr mice were grafted subcutaneously (s.c.) in the right flank region with 5×10^6 of MIA PaCa-2 cells suspended in 0.1 ml of 3:1 mixture HBSS buffer:Matrigel using syringe with a 0.5×25 mm needle (Bogmark). When tumors reached the size of 60-398 mm^3 (day 20), mice were randomized to obtain the average size of tumors in the group of ˜170 mm^3 and assigned to treatment groups. The treatment groups were administered with the preparations of fusion protein of the invention of Ex. 16^b (50 mg/kg) and rhTRAIL114-281 (50 mg/kg) as a comparison and reference compound gemcytabine (Gemzar, Eli Lilly) (50 mg/kg). The preparations were administered intravenously (i.v.) six times every second day, gemcytabine was applied intraperitoneally (i.p.) in the same schedule. The control group received formulation buffer.
When a therapeutic group reached the average tumor size of ˜1000 mm^3, mice were sacrificed by the cervical dislocation.

[4] = system: multidrug resistant human uterine sarcoma MES-SA/Dx5; test: Multidrug resistant uterine sarcoma model: MES-SA/Dx5 xenograft; details: 10 mg/kg i.v. 6 times every second day, 35 day
Method: as §1, §2, §3
On day 0 Crl:SHO-Prkdc^scidHr^hr mice were grafted subcutaneously (s.c.) in the right side with 7×10^6 of MES-SA/Dx5 cells suspended in 0.1 ml of the mixture HBSS:Matrigel 10:1 using syringe with a needle 0.5×25 mm (Bogmark). On the 19 day of the experiment mice were randomized to obtain the average size of tumors in the group of −180 mm^3 and assigned to treatment groups. The treatment groups were administered with the preparation of fusion protein of the invention of Ex. 11^a (30 mg/kg) and rhTRAIL114-281 (10 mg/kg) as a comparison against formulation buffer (19 mM NaH2PO4, 81 mM Na2HPO4, 50 mM NaCl, 5 mM glutathione, 0.1 mM ZnCl2, 10% glycerol, pH 7.4) as a control. Preparations were administered intravenously (i.v.) 6 times once daily every second day. On the 35 day of the experiment mice were sacrificed by disruption of spinal cord.

rhTRAIL114-281: recombinant human soluble TRAIL, amino acids 114-281 of hTRAIL, used as comparative reference
TGI (tumor growth inhibition) relative to the control [1]: 26%
TGI (tumor growth inhibition) relative to the control [2]: 37.9%
TGI (tumor growth inhibition) relative to the control (human colon cancer SW620): −9%
TGI (tumor growth inhibition) relative to the control [3]: 68%
TGI (tumor growth inhibition) relative to the control [4]: 29%
